Experimental data as given in US5420289A, “Substituted indole-, indene-, pyranoindole- and tetrahydrocarbazole-alkanoic acid derivatives as inhibitors of PLA2 and lipoxygenase” (American Home Products Corporation, priority 1993, dated 1995).
Where a name gives a salt, the structure may show the parent alone.

How the values were obtained:
[1] = tested on: synthesis of LTB4 by rat glycogen-elicited polymorphonuclear leukocytes (PMN); assay: inhibition of LTB4 synthesis by rat glycogen-elicited PMN (Example 72); assay type: cell-based, rat (female Wistar); conditions: Leukocyte; for inhibition at 10000 µM: at 10 mM, negative number denotes potentiation; for inhibition at 500 µM: at 0.5 mM
Text: This is especially true with respect to 5,12-diHETE, which is also denoted as LTB4 lsee Ford-Hitchinson, J. Roy. Soc. Med., 74, 831 (1981)]. Compounds which inhibit the PLA2 -mediated release of arachidonic acid thereby effectively prevent the oxidation of arachidonic acid to the various leukotriene products via the lipoxygenase cascade. Accordingly, the specificity of action of PLA2 inhibitors can be determined by the activity of test compounds in this assay, which measures the ability of compounds to inhibit the synthesis of LTB4 by rat glycogen-elicited polymorphonuclear leukocytes (PMN) in the presence of exogenous substrate.
The assay is carded out as follows:
(§1) Rat polymorphonuclear leukocytes (PMNs) are obtained from female Wistar rats (150-200 g) which receive an injection of 6% glycogen (10 ml i.p.). Rats are sacrificed 18-24 hours post injection by CO2 asphyxiation and the elicited cells are harvested by peritoneal lavage using physiological saline (0.9% NaC1). The exudate is centrifuged at 400 ×g for 10 minutes. The supernatant fluid is discarded and the cell pellet is resuspended to a concentration of 2.0×10^7 cells/mL in HBSS containing Ca^++ and Mg^++ and 10 mM L-cysteine.
(§2) To 1 mL aliquots of cell suspension, test drugs or vehicle are added, then preincubated at 37° C. for 10 minutes. A23187 (1 mM), [^3 H]-AA (3.0 mCi/mL) and unlabeled AA (1 mM) are then added and the samples are further incubated for 10 minutes. The reaction is terminated by centrifugation and pelleting cells. Supernatants are then analyzed by HPLC analysis on a 15 cm×4.6 mm ID supelcosil LC-18 (Supelco)(3M) column, using a two solvent system at a flow rate of 1.4 mL total flow as follows:
Gradient: (system is equilibrated with Solvent A)
Percent solvent changes are accomplished in a linear fashion.
Injections: […] of each supernatant is injected directly onto column and ^3 H arachidonic acid metabolites are monitored using an on-line radioactivity detector (Ramona, IN/U S, Fairfield, NJ).
Standards: 10^4 -2.0×10^4 dpm of eicosanoids of interest are injected in […] EtOH cocktail.
Co-chromatography with standard [^3 H] leukotriene B4 (LTB4) in medium of stimulated PMN exposed to drug is compared to that found in medium of stimulated cells exposed to no drug, generating percent inhibition.
Results are expressed as percent inhibition at a given compound dose or as an IC50 value.

[2] = biological target: T1, LTD4 (isolated guinea pig trachea) (Cavia porcellus, UniProt Q2NNR5); assay: in vitro isolated guinea pig trachea assay, LTD4 antagonism (Example 77); set-up: from tissue; host or cells: isolated trachea rings of male Hartley guinea pigs; species or system guinea pig (male Hartley); conditions: Table VII; 1 × 10^-5 M
T1 sequence (Q2NNR5 1-340): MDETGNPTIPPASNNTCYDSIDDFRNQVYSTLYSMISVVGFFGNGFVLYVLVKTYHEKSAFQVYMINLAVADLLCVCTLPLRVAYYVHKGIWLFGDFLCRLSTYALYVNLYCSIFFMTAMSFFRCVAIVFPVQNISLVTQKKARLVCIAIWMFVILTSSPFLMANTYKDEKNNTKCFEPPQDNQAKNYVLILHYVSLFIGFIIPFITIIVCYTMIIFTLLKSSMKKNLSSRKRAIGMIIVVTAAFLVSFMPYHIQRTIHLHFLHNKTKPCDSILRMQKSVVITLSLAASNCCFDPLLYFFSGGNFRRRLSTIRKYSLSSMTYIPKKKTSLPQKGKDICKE
Method: The LTD4 antagonist activity of the compounds of the invention is assessed in the in vitro isolated guinea pig trachea assay. This assay is carried out as follows: Male Hartley guinea pigs (350-400 g) are euthanized by a blow to the head, the neck is opened and the trachea removed. The trachea is maintained in aerated physiological salt solution, cleared of connective tissue and fat and cut into tings approximately 2 nxn in width (usually containing two cartilaginous segments per ting). Two pieces of silk suture are then passed through the lumen of the tracheal ring and are tied around the cartilage, one on each side of the trachealis muscle. The tracheal ting is suspended between a glass hook and a force […] transducer in a 10 mL organ bath for measurement of isometric tension. […] The tracheal […] maintained at 2 g resting tension and equilibrated for 45 minutes (with frequent washing and readjustment of resting tension). The tracheal rings are first contracted by the addition of carbachol (3×10^-6 M), to determine tissue responsiveness and establish a reference contraction. On attainment of a stable level of contraction (approximately 30 minutes), the tissues are washed several times until baseline tension has been restored and then re-equilibrated for 30 minutes. The tissues are then incubated for 45 minutes with a test antagonist (either 1×10^-6 M or 1×10^-5 M) or […] of an appropriate solvent control (control, non-treated). One tissue in each group serves as the control. Twenty minutes prior to the construction of the LTD4 cumulative concentration-response curve, L-[…]×10^-2 M final bath concentration) is added to inhibit bioconversion of LTD4 to LTE4. Only one LTD4 concentration-response curve is constructed in each tissue. All responses to LTD4 in an individual tissue are measured as a percentage of the reference contraction of that tissue to carbachol. LTD4 antagonist activity is determined by comparison of the concentration response curves of LTD4 in the presence and absence of antagonist. Assessment of the relative rightward shift of the antagonist treated curve relative to the solvent (control) treated tissue is calculated as a concentration ratio (Eq. A) and used in subsequent calculations to derive an antagonist pKB value (Eqs B and C). […] If a compound is found to be active and/or depress the maximal response to LTD4, then a range of concentrations of the test compound should be used generating multiple concentration ratios which would then be used to perform a Schild analysis, and determination of a pA2 value where appropriate.

[3] = tested on: cyclooxygenase (PGE2 synthesis) in rat polymorphonuclear leukocytes (PMN); assay: inhibition of PGE2 synthesis (cyclooxygenase) by rat glycogen-elicited PMN (Example 73); assay type: cell-based, rat (female Wistar); conditions: Leukocyte, * (negative) denotes a potentiation; for inhibition at 10000 µM: at 10 mM, read-out: % Inhibition (PGE2 synthesis); for inhibition at 500 µM: at 0.5 mM
Method: as §1, §2
In this assay, the procedure of Example 72 is carried out as described. However, in order to determine cyclooxygenase activity, the samples are cochromatographed with authentic reference [^3 H]-PGE2.
The results be calculated as in Example 72 and presented below: […]

carrageenan paw edema = assay: rat carrageenan paw edema assay (Example 78); assay type: in vivo, rat (male Sprague-Dawley)
Method: The compounds of the invention are further tested in the rat carrageenan paw edema assay to determine their ability to inhibit the acute inflammatory response.
This assay is carried out as follows: 140-180 g Male Sprague-Dawley rats, in groups of 6 animals are injected subcutaneously in the right paw with 0.1 mL of 1% carrageenan at zero time. Mercury plethysmographic readings (mL) of the paw are made at zero time and 3 hours later. Test compounds are suspended or dissolved in 0.5% methylcellulose and given perorally 1 hour prior to carrageenan administration.
The increase in paw volume (edema in mL) produced by the carrageenan is measured. Paw edema is calculated (3 hour volume minus zero time volume), and percent inhibition of edema is determined. Unpaired Student's t-test is used to determine statistical significance.

[4] = tested on: paw edema induced by PLA2 from the diamond back cotton mouth snake (A. piscivorus piscivorus); assay: in vivo PLA2 murine paw edema assay (Example 75); set-up: species or system mouse (male CD-1); conditions: 30 mg/kg i.p.; 30 min
[5] = biological target: T2, human synovial fluid PLA2 (Homo sapiens, UniProt P14555); assay: in vitro isolated phospholipase A2 assay, human synovial fluid PLA2 (Example 74); assay type: biochemical; set-up: inhibition / % Inhibition, HSF (human synovial fluid): dose or concentration left out as unconfirmed; conditions: for inhibition: read-out: % Inhibition, HSF (human synovial fluid)
T2 sequence (P14555 21-144): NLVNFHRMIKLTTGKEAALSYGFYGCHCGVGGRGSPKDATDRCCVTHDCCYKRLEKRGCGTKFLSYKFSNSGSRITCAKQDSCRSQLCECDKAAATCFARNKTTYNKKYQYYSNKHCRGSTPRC
Method in brief: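 Human synovial fluid PLA2 (purified) acts on ³H-arachidonate-labelled E. coli substrate, 10 minutes at 37° C with shaking; stopped with tetrahydrofuran. Released arachidonic acid is isolated on NH2 columns, eluted with tetrahydrofuran/2% acetic acid and quantitated by β-counting against a total-counts sample.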

human platelet PLA2 = biological target: T3, human platelet PLA2 (Homo sapiens, UniProt P14555); assay: in vitro isolated phospholipase A2 assay, human platelet PLA2 (Example 74); assay type: biochemical; set-up: dose or concentration left out as unconfirmed; conditions: read-out: % Inhibition, HP (human platelet)
T3 construct: Semi-purified human platelet acid extract PLA2; from tissue; host or cells: human platelets (semi-purified acid extract)
T3 sequence (P14555 21-144): T2 sequence (P14555 21-144)
Method in brief: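 Semi-purified human platelet acid-extract PLA2 (pH 4.5 acetate) was incubated with ³H-arachidonate-labelled E. coli substrate for 10 min at 37° C. The reaction was terminated with tetrahydrofuran. Released arachidonic acid was isolated on NH2 columns and quantified by β-counting against total counts.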

[6] = tested on: 5-lipoxygenase in human whole blood; assay: inhibition of 5-lipoxygenase in human whole blood (Example 79); assay type: cell-based; conditions: for % Inhibition of LTB4: 25 μM
Method in brief: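 Donor whole blood pre-incubated 10 min at 37° C with compound (0.1% DMSO final), then stimulated with […] calcium ionophore A23187 for 20 min at 37° C; stopped on ice with EGTA. Plasma LTB4, TxB2 and PGE2 measured by RIA or ELISA as ng/10^6 neutrophils; effects expressed as percent change from control.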

Question: With CCC1(CC(=O)O)OCCc2c1[nH]c1ccc(OCc3ccc4ccccc4n3)cc21 (stereo not drawn) [Example 9, 1-Ethyl-1,3,4,9-tetrahydro-6-(quinolinylmethoxy)pyrano[3,4-b]indole-1-acetic acid] as the compound, how does the inhibition at 10000 µM [1] read?
Answer: The inhibition at 10000 µM was 96%.

Question: And the Kb [2]?
Answer: The Kb was 550 nM.

Question: What about the inhibition at 10000 µM [3] of the same compound?
Answer: Its inhibition at 10000 µM is 75%.

Question: Which results are given for CC1(C)OCCc2c1[nH]c1ccc(OCc3ccc4ccccc4n3)cc21 [Example 14, 1,3,4,9-Tetrahydro-1,1-dimethyl-6-(2-quinolinylmethoxy)pyrano[3,4-b]indole]?
Answer: % Inhibition 50 mg/kg (peroral) (carrageenan paw edema; 50 mg/kg peroral, 3 hours after carrageenan): 27%; inhibition at 10000 µM [1]: 91%; inhibition at 10000 µM [3]: -48%

Question: For Cc1c(CC(=O)O)c2cc(OCc3ccc4ccccc4n3)ccc2n1Cc1ccc2ccccc2n1 [Example 18, 2-Methyl-5-(2-quinolinylmethoxy)-1,2-(quinolinylmethy)-1H-indole-3-acetic acid], which inhibition at 500 µM [1] is on record?
Answer: Its inhibition at 500 µM is 88%.

Question: What about the “% Change in Edema” value [4] of the same compound?
Answer: Its value is -19%.

Question: What about the IC50 ([5]; Table III, read-out: IC50 HSF (human synovial fluid)) of the same compound?
Answer: Its IC50 is 27000 nM.

Question: And the inhibition [5]?
Answer: Its inhibition is 30%.

Question: What about the Kb [2] of the same compound?
Answer: Its Kb is 1410 nM.

Question: What about the inhibition at 500 µM [3] of the same compound?
Answer: The inhibition at 500 µM was -31%.

Question: And the inhibition (human platelet PLA2)?
Answer: Its inhibition is 47%.

Question: For Cc1c(CC(=O)O)c2cc(OCc3ccc4ccccc4n3)ccc2n1Cc1ccc(Cl)cc1 [Example 43, 1-[(4-Chlorophenyl)methyl]-2-methyl-5-(2-quinolinylmethoxy)-1H-indole-acetic acid tromethamine salt hemi-ethanolate], which Kb [2] is on record?
Answer: The Kb was 1000 nM.

Question: CCOC(=O)Cc1c(C)n(Cc2ccccc2)c2ccc(OCc3nc4ccccc4s3)cc12 [Example 50, 5-(2-Benzothiazolylmethoxy)-1-(phenylmethyl)-2-methyl-1H-indole-3-acetic acid ethyl ester] was tested. Which “% Inhibition of LTB4” value [6] did it give?
Answer: The value was 95%.

Question: And the inhibition [5]?
Answer: The inhibition was 2%.

Question: What about the Kb [2] of the same compound?
Answer: Its Kb is 3980 nM.

Question: Which “% Inhibition of LTB4” value [6] does the source give for CCN(CC)C(=O)Cc1c(C)n(Cc2ccccc2)c2ccc(OCc3nc4ccccc4s3)cc12 [Example 52, 5-(2-Benzothiazolylmethoxy)-N,N-diethyl-1-(phenylmethyl)-2-methyl-1H-indole-3-acetamide] here?
Answer: Its value is 68%.

Question: What about the IC50 ([6]; human whole blood, read-out: IC50 (inhibition of LTB4)) of the same compound?
Answer: Its IC50 is 19900 nM.

Question: And the inhibition [5]?
Answer: The inhibition was 12%.

Question: And the Kb [2]?
Answer: The Kb was 2510 nM.

Question: What does the source list for CCc1cccc2c3c([nH]c12)C(CC)(CC(=O)O)OCC3 (stereo not drawn) [etodolac, reference compound]?
Answer: ED50 (carrageenan paw edema; Rattus norvegicus, 3 h, oral, Table VIII): 23 mg/kg; inhibition at 500 µM [1]: 21%; inhibition at 500 µM [3]: 100%
